Assay results reported in patent publication US20230066011A1, “PYRROLOPYRIMIDINE DERIVATIVE, AND PHARMACEUTICAL COMPOSITION FOR PREVENTING OR TREATING PROTEIN KINASE-RELATED DISEASE COMPRISING SAME AS ACTIVE INGREDIENT” (VORONOI CO., LTD., priority 2019, published 2023).

Columns and labels:
human GST-CLK1 = biological target: T1, human GST-CLK1 (Homo sapiens, UniProt P49759); test: GST-CLK1 enzyme inhibition, ADP-Glo kinase assay; assay type: biochemical; conditions: ATP 10 μM, GST-CLK1 129-end
T1 construct: purified human GST-CLK1 (129-end, SignalChem) enzyme; purchased SignalChem
Protocol: (§1) To evaluate an inhibitory activity of the compound according to the present invention against LRRK2, LRRK2 (G2019S), DYRK1, CLK1, and TTK kinases, experiments were performed as follows.
(§2) Each of the Example compounds was reacted with a purified human GST-CLK1 (129-end, SignalChem) enzyme to evaluate an ability to inhibit an enzyme using a method as described below. A composition of 40 mM Tris-HCl (pH 7.4), 20 mM MgCl2, 0.5 mg/mL BSA, and 50 μM DTT was used as a reaction buffer, and all reactions of test substances were performed in the reaction buffer. In the test, purified ATP (10 μM) and a specific substrate solution were reacted with a human GST-CLK1 (129-end, 3 ng) enzyme at 25° C. for an hour, and the enzyme activities were then determined using an in vitro ADP-Glo™ kinase assay (Promega). An enzyme-activity reaction solution, an ADP-Glo reaction solution, and an enzyme-ability detection solution were reacted at a ratio of 2:2:1 to measure a degree of inhibition of the enzyme activity with luminescence. The degree of inhibition of the enzyme activity according to the treatment concentration of each of the compounds was calculated based on the fluorescence of the enzyme activity of the solvent control which was not treated with the compound. In this case, the concentration of each of the compounds inhibiting 50% of the enzyme activity was determined to be an IC50 (nM) value. The IC50 (nM) value of each of the compounds was determined from 3 sets of data, and calculated using Prism (Version 5.01; GraphPad) software.

human GST-DYRK1A = biological target: T2, human GST-DYRK1A (Homo sapiens, UniProt Q13627); test: GST-DYRK1A enzyme inhibition, ADP-Glo kinase assay; assay type: biochemical; conditions: ATP 10 μM, GST-DYRK1A full length, read-out: DYRK1 IC50
T2 construct: purified human GST-DYRK1A (full length, Thermo Scientifics) enzyme; purchased Thermo Scientifics
Protocol: as §1
as §2, with “GST-DYRK1A (full length, Thermo Scientifics)” for “GST-CLK1 (129-end, SignalChem)”, “GST-DYRK1A (full length, 10” for “GST-CLK1 (129-end, 3”, “value, and the” for “value. The”

T1 sequence (P49759 129-484 limits assumed): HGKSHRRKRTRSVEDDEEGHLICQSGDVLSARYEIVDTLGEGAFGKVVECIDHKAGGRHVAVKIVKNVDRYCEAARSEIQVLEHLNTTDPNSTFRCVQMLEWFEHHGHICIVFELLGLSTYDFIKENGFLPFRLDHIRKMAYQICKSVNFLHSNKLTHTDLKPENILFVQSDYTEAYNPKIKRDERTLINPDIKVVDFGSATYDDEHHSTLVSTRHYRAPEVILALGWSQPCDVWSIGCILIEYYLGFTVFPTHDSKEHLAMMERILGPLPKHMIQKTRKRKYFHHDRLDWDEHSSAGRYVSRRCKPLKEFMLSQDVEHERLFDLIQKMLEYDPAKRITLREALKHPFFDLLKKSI

IC50 (human GST-CLK1) [nM]	IC50 (human GST-DYRK1A) [nM]	SMILES
301 to 1000	301 to 1000	CC[C@H](C)Nc1nc(Nc2ccc(P(C)(C)=O)cc2OC)nc2[nH]cc(C#N)c12 [Example 267, (S)-4-(sec-butylamino)-2-((4-(dimethylphosphoryl)-2-methoxyphenyl)amino)-7H-pyrrolo[2,3-d]pyrimidine-5-carbonitrile]
101 to 300	301 to 1000	COc1cc(P(C)(C)=O)ccc1Nc1nc(NC2CCC2)c2c(C#N)c[nH]c2n1 [Example 268, 4-(cyclobutylamino)-2-((4-(dimethylphosphoryl)-2-methoxyphenyl)amino)-7H-pyrrolo[2,3-d]pyrimidine-5-carbonitrile]
101 to 300	301 to 1000	COc1cc(P(C)(C)=O)ccc1Nc1nc(NC2CCCC2)c2c(C#N)c[nH]c2n1 [Example 269, 4-(cyclopentylamino)-2-((4-(dimethylphosphoryl)-2-methoxyphenyl)amino)-7H-pyrrolo[2,3-d]pyrimidine-5-carbonitrile]
301 to 1000	301 to 1000	COc1cc(P(C)(C)=O)ccc1Nc1nc(N[C@@H]2CCOC2)c2c(C#N)c[nH]c2n1 [Example 270, (R)-2-((4-(dimethylphosphoryl)-2-methoxyphenyl)amino)-4-((tetrahydrofuran-3-yl)amino)-7H-pyrrolo[2,3-d]pyrimidine-5-carbonitrile]
101 to 300	301 to 1000	COc1cc(P(C)(C)=O)ccc1Nc1nc(N[C@H]2CCOC2)c2c(C#N)c[nH]c2n1 [Example 271, (S)-2-((4-(dimethylphosphoryl)-2-methoxyphenyl)amino)-4-((tetrahydrofuran-3-yl)amino)-7H-pyrrolo[2,3-d]pyrimidine-5-carbonitrile]
301 to 1000	301 to 1000	COc1cc(P(C)(C)=O)ccc1Nc1nc(NC2CCOCC2)c2c(C#N)c[nH]c2n1 [Example 272, 2-((4-(dimethylphosphoryl)-2-methoxyphenyl)amino)-4-((tetrahydro-2H-pyran-4-yl)amino)-7H-pyrrolo[2,3-d]pyrimidine-5-carbonitrile]
101 to 300	301 to 1000	COc1cc(P(C)(C)=O)ccc1Nc1nc(NCC2CC2)c2c(C#N)c[nH]c2n1 [Example 273, 4-((cyclopropylmethyl)amino)-2-((4-(dimethylphosphoryl)-2-methoxyphenyl)amino)-7H-pyrrolo[2,3-d]pyrimidine-5-carbonitrile]
301 to 1000	301 to 1000	COc1cc(P(C)(C)=O)ccc1Nc1nc(NCC2CCCC2)c2c(C#N)c[nH]c2n1 [Example 274, 4-((cyclopentylmethyl)amino)-2-((4-(dimethylphosphoryl)-2-methoxyphenyl)amino)-7H-pyrrolo[2,3-d]pyrimidine-5-carbonitrile]
101 to 300	301 to 1000	CCCCNc1nc(Nc2ccc(P(C)(C)=O)cc2OC)nc2[nH]cc(C#N)c12 [Example 275, 4-(butylamino)-2-((4-(dimethylphosphoryl)-2-methoxyphenyl)amino)-7H-pyrrolo[2,3-d]pyrimidine-5-carbonitrile]
301 to 1000	301 to 1000	COc1cc(P(C)(C)=O)ccc1Nc1nc(NC2COC2)c2c(C#N)c[nH]c2n1 [Example 276, 2-((4-(dimethylphosphoryl)-2-methoxyphenyl)amino)-4-(oxetan-3-ylamino)-7H-pyrrolo[2,3-d]pyrimidine-5-carbonitrile]
301 to 1000	301 to 1000	CNc1nc(Nc2ccc(P3(=O)CCN(C4CC4)CC3)cc2OC)nc2[nH]cc(C#N)c12 [Example 279, 2-((4-(1-cyclopropyl-4-oxido-1,4-azaphosphinan-4-yl)-2-methoxyphenyl)amino)-4-(methylamino)-7H-pyrrolo[2,3-d]pyrimidine-5-carbonitrile]
< 100	101 to 300	CNc1nc(Nc2ccc(C(=O)N3CCN(C4COC4)CC3)c3c2OCCO3)nc2[nH]cc(C#N)c12 [Example 280, 4-(methylamino)-2-((8-(4-(oxetan-3-yl)piperazine-1-carbonyl)-2,3-dihydrobenzo[b][1,4]dioxin-5-yl)amino)-7H-pyrrolo[2,3-d]pyrimidine-5-carbonitrile]
